Assay results: PMC9768162, “Synthesis of macrocyclic nucleoside antibacterials and their interactions with MraY” (Nature Communications, 2022)
Converted amounts (≈) assume the structure as drawn. Like-named read-outs stand apart in the source and are kept apart here. Marks after values point to notes of the source that are not given here.

Assays:
E. faecium [1] = assay: Antibacterial activity, MIC by microdilution broth method (CLSI); type: cell-based, Enterococcus faecium; conditions: for MIC: Enterococcus faecium, read-out: MIC
S. aureus [2] = assay: as above; type: cell-based, Staphylococcus aureus; conditions: Staphylococcus aureus
K. pneumoniae [3] = assay: as above; type: cell-based; conditions: Klebsiella pneumoniae, ATCC13883; K. pneumoniae ATCC 13883; CA-MHB, 37 °C, 20 h
A. baumannii [4] = assay: as above; type: cell-based; conditions: Acinetobacter baumannii, ATCC19606; A. baumannii ATCC 19606; CA-MHB, 37 °C, 20 h
P. aeruginosa [5] = assay: as above; type: cell-based; conditions: Pseudomonas aeruginosa, ATCC27853; P. aeruginosa ATCC 27853; CA-MHB, 37 °C, 20 h
E. cloacae [6] = assay: as above; type: cell-based; conditions: Enterobacter cloacae, ATCC13047; E. cloacae ATCC 13047; CA-MHB, 37 °C, 20 h
M. tuberculosis = assay: MIC in 7H9 liquid medium, 2 weeks; type: cell-based; conditions: Mycobacterium tuberculosis, 336 h, M. tuberculosis H37Rv, 37 °C, minimum concentration inhibiting at least 50% of growth
M. avium = assay: MIC in 7H9 liquid medium, 2 weeks; type: cell-based; conditions: Mycobacterium avium, ATCC25291, 336 h, M. avium ATCC 25291, 37 °C, minimum concentration inhibiting at least 50% of growth
E. faecalis [7] = assay: Antibacterial activity, MIC by microdilution broth method (CLSI); type: cell-based; conditions: for MIC: Enterococcus faecalis
[8] = tested on: vancomycin-resistant Enterococci (VRE), clinically isolated E. faecium and E. faecalis; type: cell-based; conditions: VRE E. faecium ATCC 51559, 51858, E. faecalis 51299 and clinically isolated E. faecium and E. faecalis
E. coli = assay: Antibacterial activity, MIC by microdilution broth method (CLSI); conditions: E. coli ATCC 25922; CA-MHB, 37 °C, 20 h
[9] = molecular target: T1, MraYSA (S. aureus MraY enzyme) (Staphylococcus aureus, UniProt Q2FZ93); assay: Fluorescence-based MraY inhibitory assay (dansylated Park's nucleotide); conditions: for MraYSA activity, source data of Fig. 7b, average: average of n=1-3
T1 sequence (Q2FZ93 1-321): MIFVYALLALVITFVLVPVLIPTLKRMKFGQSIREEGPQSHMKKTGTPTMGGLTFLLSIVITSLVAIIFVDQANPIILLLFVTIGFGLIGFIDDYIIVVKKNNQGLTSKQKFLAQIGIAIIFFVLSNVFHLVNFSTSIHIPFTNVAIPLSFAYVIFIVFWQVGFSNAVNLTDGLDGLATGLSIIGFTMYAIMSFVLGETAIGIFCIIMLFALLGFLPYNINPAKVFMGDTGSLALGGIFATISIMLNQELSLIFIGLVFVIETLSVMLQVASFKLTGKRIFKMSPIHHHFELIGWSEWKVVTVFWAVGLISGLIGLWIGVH

MraY (E. coli) = tested on: MraY (E. coli); design: method as in PMID 24014169; conditions: cited from earlier work
E. faecium [10] = tested on: E. faecium; design: method as in PMID 24014169; conditions: cited from earlier work
S. aureus [11] = conditions: S. aureus ATCC 6538P, cited from earlier work
K. pneumoniae [12] = tested on: K. pneumoniae; design: method as in PMID 24014169; conditions: K. pneumoniae ATCC 13883; cited from earlier work
A. baumannii [13] = tested on: A. baumannii; design: method as in PMID 24014169; conditions: A. baumannii ATCC 19606; cited from earlier work
P. aeruginosa [14] = tested on: P. aeruginosa; design: method as in PMID 24014169; conditions: P. aeruginosa ATCC 15692 (footnote e); cited from earlier work
E. cloacae [15] = tested on: E. cloacae; design: method as in PMID 24014169; conditions: E. cloacae ATCC 13047; cited from earlier work
E. faecalis [16] = tested on: E. faecalis; design: method as in PMID 24014169; conditions: E. faecalis ATCC 29212; cited from earlier work
Gram-positive bacteria = tested on: Gram-positive bacteria; design: method as in PMID 24014169; conditions: range over strains; cited from earlier work

CCCCCCCCCCCCCCCC(=O)O[C@@H]1C[C@@H]2CN(C1)[C@H](C(=O)O)[C@@H]([C@H]1O[C@@H](n3ccc(=O)[nH]c3=O)[C@H](O)[C@@H]1O)O[C@@H]1O[C@H](CN2)[C@@H](O)[C@H]1O [SPM-3]
MIC (E. faecium [1]; ATCC35667, 20 h, E. faecium ATCC 35667, CA-MHB, 37 °C, 20 h): 2 µg/mL (≈ 2.6 µM)
MIC (E. faecium [1]; ATCC 51559 / VRE, E. faecium (VRE) ATCC 51559): 2 µg/mL (≈ 2.6 µM)
MIC (E. faecium [1]; ATCC 51858 / VRE, E. faecium (VRE) ATCC 51858): 8 µg/mL (≈ 10.4 µM)
MIC (E. faecium [1]; clinically isolated E. faecium strain 1): 2 µg/mL (≈ 2.6 µM)
MIC (E. faecium [1]; clinically isolated E. faecium strain 2): 2 µg/mL (≈ 2.6 µM)
MIC (E. faecium [1]; clinically isolated E. faecium strain 3): 4 µg/mL (≈ 5.2 µM)
MIC (E. faecium [1]; clinically isolated E. faecium strain 4): 1 µg/mL (≈ 1.3 µM)
MIC (E. faecium [1]; clinically isolated E. faecium strain 5): 2 µg/mL (≈ 2.6 µM)
MIC (E. faecium [1]; clinically isolated E. faecium strain 7): 2 µg/mL (≈ 2.6 µM)
MIC (E. faecium [1]; clinically isolated E. faecium strain 8): 2 µg/mL (≈ 2.6 µM)
MIC (E. faecium [1]; clinically isolated E. faecium strain 9): 1 µg/mL (≈ 1.3 µM)
MIC (E. faecium [1]; clinically isolated E. faecium strain 10): 1 µg/mL (≈ 1.3 µM)
MIC (E. faecium [1]; clinically isolated E. faecium strain 11): 4 µg/mL (≈ 5.2 µM)
MIC (E. faecium [1]; clinically isolated E. faecium strain 13): 1 µg/mL (≈ 1.3 µM)
MIC (E. faecium [1]; clinically isolated E. faecium strain 14): 0.5 µg/mL (≈ 0.65 µM)
MIC (E. faecium [1]; clinically isolated E. faecium strain 15): 2 µg/mL (≈ 2.6 µM)
MIC (range over strains) (E. faecium [1]; clinically isolated E. faecium (14 strains)): 0.5 to 4 µg/mL
MIC (S. aureus [2]; ATCC29213, 20 h, S. aureus ATCC 29213, CA-MHB, 37 °C, 20 h): 8 µg/mL (≈ 10.4 µM)
MIC (S. aureus [2]; MRSA, 20 h, S. aureus (MRSA) JE2, CA-MHB, 37 °C, performed once): 8 µg/mL (≈ 10.4 µM)
MIC (S. aureus [2]; MRSA, clinically isolated MRSA #1958): 16 µg/mL (≈ 20.8 µM)
MIC (S. aureus [2]; MRSA, clinically isolated MRSA #2071): 16 µg/mL (≈ 20.8 µM)
MIC (S. aureus [2]; MRSA, clinically isolated MRSA #2110): > 64 µg/mL
MIC (S. aureus [2]; MRSA, clinically isolated MRSA #2310): 32 µg/mL (≈ 41.6 µM)
MIC (S. aureus [2]; MRSA, clinically isolated MRSA #2334): > 64 µg/mL
MIC (S. aureus [2]; MRSA, clinically isolated MRSA #2931): 4 µg/mL (≈ 5.2 µM)
MIC (S. aureus [2]; MRSA, clinically isolated MRSA #2932): 32 µg/mL (≈ 41.6 µM)
MIC (S. aureus [2]; MRSA, clinically isolated MRSA #2933): 8 µg/mL (≈ 10.4 µM)
MIC (S. aureus [2]; MRSA, clinically isolated MRSA #2934): 8 µg/mL (≈ 10.4 µM)
MIC (S. aureus [2]; MRSA, clinically isolated MRSA #2935): 32 µg/mL (≈ 41.6 µM)
MIC (K. pneumoniae [3]): > 64 µg/mL
MIC (A. baumannii [4]): > 64 µg/mL
MIC (P. aeruginosa [5]): > 64 µg/mL
MIC (E. cloacae [6]): > 64 µg/mL
MIC (M. tuberculosis): 16 µg/mL (≈ 20.8 µM)
MIC (M. avium): 4 µg/mL (≈ 5.2 µM)
MIC (E. faecalis [7]; ATCC 51299 / VRE, E. faecalis (VRE) ATCC 51299): 1 µg/mL (≈ 1.3 µM)
MIC (E. faecalis [7]; clinically isolated E. faecalis strain 21): 0.5 µg/mL (≈ 0.65 µM)
MIC (E. faecalis [7]; clinically isolated E. faecalis strain 22): 0.5 µg/mL (≈ 0.65 µM)
MIC (E. faecalis [7]; clinically isolated E. faecalis strain 23): 1 µg/mL (≈ 1.3 µM)
MIC (E. faecalis [7]; clinically isolated E. faecalis strain 24): 1 µg/mL (≈ 1.3 µM)
MIC (E. faecalis [7]; clinically isolated E. faecalis strain 25): 0.5 µg/mL (≈ 0.65 µM)
MIC (E. faecalis [7]; clinically isolated E. faecalis strain 26): 0.5 µg/mL (≈ 0.65 µM)
MIC (E. faecalis [7]; clinically isolated E. faecalis strain 27): 0.5 µg/mL (≈ 0.65 µM)
MIC (E. faecalis [7]; clinically isolated E. faecalis strain 28): 1 µg/mL (≈ 1.3 µM)
MIC (E. faecalis [7]; clinically isolated E. faecalis strain 29): 1 µg/mL (≈ 1.3 µM)
MIC (E. faecalis [7]; clinically isolated E. faecalis strain 30): 0.5 µg/mL (≈ 0.65 µM)
MIC (E. faecalis [7]; clinically isolated E. faecalis strain 31): 1 µg/mL (≈ 1.3 µM)
MIC (E. faecalis [7]; clinically isolated E. faecalis strain 32): 1 µg/mL (≈ 1.3 µM)
MIC (E. faecalis [7]; clinically isolated E. faecalis strain 33): 1 µg/mL (≈ 1.3 µM)
MIC (E. faecalis [7]; clinically isolated E. faecalis strain 34): 0.5 µg/mL (≈ 0.65 µM)
MIC (E. faecalis [7]; clinically isolated E. faecalis strain 35): 1 µg/mL (≈ 1.3 µM)
MIC (range over strains) (E. faecalis [7]; clinically isolated E. faecalis (15 strains)): 0.5 to 1 µg/mL
MIC (range over strains) [8]: 0.5 to 8 µg/mL
MIC (E. coli): >64 µg/mL
IC50 [9]: 41 nM
MraYSA activity, source data of Fig. 7b, average ([9]; compound 0.0001 µM): 97.0831
MraYSA activity, source data of Fig. 7b, average ([9]; compound 0.001 µM): 91.2486
MraYSA activity, source data of Fig. 7b, average ([9]; compound 0.01 µM): 63.9982
MraYSA activity, source data of Fig. 7b, average ([9]; compound 0.1 µM): 42.189
MraYSA activity, source data of Fig. 7b, average ([9]; compound 1 µM): 10.7538
MraYSA activity, source data of Fig. 7b, average ([9]; compound 10 µM): 6.7446
MraYSA activity, source data of Fig. 7b, average ([9]; compound 100 µM): 3.028
fold weaker compared to SPM-1 (MraYSA IC50) ([9]; ratio of IC50 values, SPM-3 vs SPM-1): 4.5 fold

CCCC(C)CC(C)CC(C)CC(C)/C=C(C)/C=C/C(O)C(C)C(=O)OC1C(O)CN2CC1NC[C@H]1O[C@@H](O[C@H]([C@H]3O[C@@H](n4ccc(=O)[nH]c4=O)[C@H](O)[C@@H]3OS(=O)(=O)O)[C@H]2C(=O)O)[C@H](O)[C@@H]1O (stereo partly drawn) [Sphaerimicin A]
IC50 (MraY (E. coli)): 13.9 nM
IC50 for MraY (MraY (E. coli)): 0.0135 µg/mL
MIC (E. faecium [10]; (footnote c)): 2^c μg/mL
MIC (E. faecium [10]; E. faecium ATCC 19434): 2 µg/mL (≈ 2.05 µM)
MIC (S. aureus [11]): 4^d μg/mL
MIC (S. aureus [11]; listed as sphaerimicin A): 4 µg/mL (≈ 4.1 µM)
MIC (K. pneumoniae [12]): >128 µg/mL
MIC (A. baumannii [13]): >128 µg/mL
MIC (P. aeruginosa [14]): >128^e μg/mL
MIC (E. cloacae [15]): >128 µg/mL
MIC (E. faecalis [16]): 2 µg/mL (≈ 2.05 µM)
MIC against Gram-positive bacteria (Gram-positive bacteria): 1 to 16 µg/mL
